Experimental data as given in patent US11883492B2, “Combination treatment of chemoresistant cancers” (THE REGENTS OF THE UNIVERSITY OF CALIFORNIA, priority 2018, dated 2024).

Columns and labels:
AKT, BMI1 = assay: Wnt5a-induced AKT activation and BMI1 expression (immunoblot); type: cell-based; details: wt-Hs578T
Method: FIGS. 8A-8B. The figures show Enhanced BMI1 Expression Induced By Wnt5a Is Dependent On Activation Of AKT. (FIG. 8A), BMI1 mRNA level in Hs578T cells treated with Wnt5a at 100 ng/ml at indicated time point were examined by quantitative PCR (qPCR). Data shown were the mean expression levels of BMI1 relative to time 0 samples in triplicate and normalized with respect to GAPDH. Error bars indicate SEM. (FIG. 8B), Hs578T cells were cultured in serum-free medium, pre-treated with or without MK-2206 for 3 hours, and then stimulated with or without Wnt5a at 100 ng/ml for 6 hours. BMI1, pAKT and AKT were examined on these samples via immunoblot analyses. Numbers below the row for AKT provide the ratios of band densities of pAKT to AKT that were normalized to that of samples treated for 0 minutes with Wnt5a. β-Actin served as protein-loading control. Numbers below the row for BMI1 provide the ratios of band densities of BMI1 to β-Actin, normalized with respect to that of samples treated for 0 minutes with Wnt5a.
Immunoblot analyses. Cells used for examination for proteins via immunoblot analysis were treated with control antibody or cirmtuzumab (50 μg/ml) for overnight and then were cultured in medium supplemented with or without recombinant Wnt5a (100 ng/ml). […] The protein concentration was determined using a bicinchoninic acid protein assay (Pierce). […]

PDX4 [1] = assay: Tumorigenicity (re-engraftment) assay with tumor cells of PDX4 removed from treated mice; type: in vivo, Rag2−/−γc−/− mice; details: for Tumor incidence (mice with tumors/mice implanted): cells isolated from PDX4 of paclitaxel-treated mice (Table 6, FIG. 2E)
Description: (§1) Patient-Derived xenografts. Four-to-eight-week-old female Rag2−/−γc−/− mice were used in this study following the care and use of laboratory animal guidelines of National Institutes of Health (NIH). The UC San Diego Medical Experimental Animal Care Committee approved the study protocol. The mice were housed in laminar-flow cabinets under specific pathogen-free conditions and fed ad libitum. The PDX were established using mechanically minced fresh breast cancer specimens. Early passage (P1-P5) of primary tumor tissues from these PDX models were mechanically minced, enzymatically and mechanically dissociated using GentleMACS Dissociator (Miltenyi Biotec), in accordance to the manufacturer's instruction. Erythrocytes were removed via density gradient centrifugation in Percoll™ Plus (GE Healthcare Life Sciences, CC-17-5442-01).
(§2) Tumorigenicity Assay. Cells were suspended in Mammary-Epithelial Growth Medium (MEGM), mixed with Matrigel (BD Biosciences, San Diego, CA) at a 1:1 ratio, and then transplanted into the mammary pads of Rag2−/−γc−/− mice. We monitored the mice weekly for the development of tumors. We extirpated the tumor to examine the tumor cells for expression of ROR1 at 10 days after treatment with 13.4 mg/kg paclitaxel via intravenously injection for consecutive 5 days. To examine for metastases, we harvested the lungs of 6 mice from each treatment group at 42 or 48 days post-transplantation and fixed the tissue with 10%-formalin, prior to embedding in paraffin. Each paraffin block was cut into 200-μm sections. Tumor foci were scored in a blinded fashion by a board-certified pathologist. To test whether cirmtuzumab alone or in combination with paclitaxel impaired engraftment of primary breast tumor cells, 1×10^5 single cells isolated from PDX4 or PDX5 were injected into the mammary pads of 4- to 6-week-old Rag2−/−γc−/− mice. When tumor size reached 300 mm3, 13.4 mg/kg paclitaxel was injected intravenously for consecutive 5 days or/and 10 mg/kg of cirmtuzumab was injected intravenously at day 0, day 7 and then biweekly.

PDX5 [2] = assay: Tumorigenicity (re-engraftment) assay with tumor cells of PDX5 removed from treated mice; type: in vivo, Rag2−/−γc−/− mice; details: for Tumor incidence (mice with tumors/mice implanted): cells isolated from PDX5 of paclitaxel-treated mice (Table 6, FIG. 2E)
Description: as §1, §2

breast cancer PDX = assay: Capacity of PDX tumor cells from treated mice to form secondary PDX; type: in vivo, Rag2−/−γc−/− mice; details: cirmtuzumab 10 mg/kg, paclitaxel 13.4 mg/kg or both (FIG. 5C)
Description: as §1
Tumorigenicity Assay. Cells were suspended in Mammary-Epithelial Growth Medium (MEGM), mixed with Matrigel (BD Biosciences, San Diego, CA) at a 1:1 ratio, and then transplanted into the mammary pads of Rag2−/−γc−/− mice. We monitored the mice weekly for the development of tumors. We extirpated the tumor to examine the tumor cells for expression of ROR1 at 10 days after treatment with 13.4 mg/kg paclitaxel via intravenously injection for consecutive 5 days. […] Tumor foci were scored in a blinded fashion by a board-certified pathologist. […]

[3] = tested on: breast cancer PDX (PDX4, PDX5); assay: Tumor growth of breast-cancer PDX in mice; type: in vivo, Rag2−/−γc−/− mice
Description: as §1
as §2, with “When tumor size reached 300 mm3, 13.4 mg/kg paclitaxel was injected intravenously for consecutive 5 days or/and 10 mg/kg of cirmtuzumab was injected intravenously at day 0, day 7 and then biweekly.” left out
Control groups were injected with hIgG instead of cirmtuzumab. The tumor volume (v) was determined using the formula v=(length)×(width)2×0.4.

PDX4 [4] = assay: Proportion of ROR1+ cells in residual PDX4 tumors after paclitaxel (flow cytometry); type: in vivo, Rag2−/−γc−/− mice; details: PDX4, mice treated with paclitaxel 13.4 mg/kg; untreated 4.5%±1.1%
Method: as §2
(§3) Flow cytometry analysis. […]

PDX5 [5] = assay: Proportion of ROR1+ cells in residual PDX5 tumors after paclitaxel (flow cytometry); type: in vivo, Rag2−/−γc−/− mice; details: PDX5, mice treated with paclitaxel 13.4 mg/kg; untreated 8.5%±5.8%
Method: as §2, §3

PDX4 or PDX5 = assay: CSC features (ALDH1, spheroids, Matrigel invasion, re-engraftment) of PDX tumors from paclitaxel-treated mice; type: in vivo, Rag2−/−γc−/− mice
Method: as §2, §3

tumor cells from PDX4 = assay: Cytotoxicity of paclitaxel on PDX tumor cells in vitro after cirmtuzumab or hIgG; type: cell-based; details: Homo sapiens
Method: FIG. 10. […] Single cell suspension of PDX4 or PDX5 samples were treated with cirmtuzumab or control antibody with or without increasing concentration of paclitaxel for 24 hours. Data are shown as the mean (±SEM) percentage of viable cells of triplicated samples from each of the treatments as determined by flow cytometry analysis. An asterisk indicates P<0.05 and ** indicates P<0.01 as determined by Student's t-Test.
We treated equivalent numbers of tumor cells from PDX4 or PDX5 with cirmtuzumab or control hIgG at 50 μg/ml overnight and then cultured the cells in separate wells in triplicate with increasing concentrations of paclitaxel.

NC1(c2ccc(-c3nc4ccn5c(=O)[nH]nc5c4cc3-c3ccccc3)cc2)CCC1 [MK-2206]
Wnt5a-enhanced expression of BMI1 (AKT, BMI1): inhibited the capacity of Wnt5a to enhance expression of BMI1 | Wnt5a-induced activation of AKT (AKT, BMI1): impaired the capacity of Wnt5a to induce activation of AKT

CC(=O)O[C@H]1C(=O)[C@@]2(C)[C@H]([C@H](OC(=O)c3ccccc3)[C@]3(O)C[C@H](OC(=O)[C@H](O)[C@@H](NC(=O)c4ccccc4)c4ccccc4)C(C)=C1C3(C)C)[C@]1(OC(C)=O)CO[C@@H]1C[C@@H]2O [paclitaxel]
Mice that developed PDX/mice engrafted (PDX4 [1]; 1 × 10^4 cells from PDX4 that relapsed after therapy (Table 8, FIG. 5C)): 5/5 | Mice that developed PDX/mice engrafted (PDX4 [1]; 1 × 10^5 cells from PDX4 that relapsed after therapy (Table 8, FIG. 5C)): 5/5 | Tumor incidence (mice with tumors/mice implanted) (PDX4 [1]; 10^3 cells re-implanted): 4/5 | Tumor incidence (mice with tumors/mice implanted) (PDX4 [1]; 10^4 cells re-implanted): 5/5 | Frequency of Tumorigenic Cell (PDX4 [1]; PDX4 from paclitaxel-treated mice, ELDA software (Table 6)): 1/622 | Mice that developed PDX/mice engrafted (PDX5 [2]; 1 × 10^4 cells from PDX5 that relapsed after therapy (Table 8, FIG. 5C)): 3/3 | Mice that developed PDX/mice engrafted (PDX5 [2]; 1 × 10^5 cells from PDX5 that relapsed after therapy (Table 8, FIG. 5C)): 4/5 | Tumor incidence (mice with tumors/mice implanted) (PDX5 [2]; 10^3 cells re-implanted): 4/5 | Tumor incidence (mice with tumors/mice implanted) (PDX5 [2]; 10^4 cells re-implanted): 5/5 | Frequency of Tumorigenic Cell (PDX5 [2]; PDX5 from paclitaxel-treated mice, ELDA software (Table 6)): 1/622 | Capacity of tumor cells of PDX that relapsed after therapy to re-engraft immune-deficient mice (breast cancer PDX): readily developed secondary PDX | Tumor response of secondary PDX ([3]; 13.4 mg/kg for five consecutive days when PDX reached 300 mm^3 (FIG. 2A)): tumor regression | Tumor growth / tumor volumes in PDX4- or PDX5-bearing mice ([3]; cirmtuzumab 10 mg/kg, paclitaxel 13.4 mg/kg or the combination (FIG. 5A)): inhibited tumor growth relative to that of control-treated animals | Tumor regrowth after therapy ([3]; tumors derived from PDX with high proportions of ROR1+ cells (e.g. PDX4 or PDX5), 13.4 mg/kg for five days): re-grew shortly after therapy | Proportion of ROR1+ cells in residual tumors (PDX4 [4]): 61.7%±7.0% | Proportion of ROR1+ cells in residual tumors (PDX5 [5]): 56.4%±6.4% | Cells able to form spheroids, invade Matrigel or re-engraft in tumors of treated mice (PDX4 or PDX5; versus matched tumors of untreated mice or the original PDX (FIG. 2C-2E)): enriched for cells that could form spheroids, invade Matrigel, or re-engraft | Proportion of ALDH1-expressing cells in tumors of treated mice (PDX4 or PDX5; versus matched tumors of untreated mice or the original PDX (FIG. 7J)): higher proportions of ALDH1-expressing cells | IC50 (tumor cells from PDX4; with cirmtuzumab 50 μg/ml overnight (FIG. 10)): 1 ± 1 µM | IC50 (tumor cells from PDX4; with non-specific hIgG 50 μg/ml overnight (FIG. 10)): 23 ± 1 µM
